Laboratory results: paper PMC8766848, “The Structural Basis of Babesia orientalis Lactate Dehydrogenase” (Frontiers in Cellular and Infection Microbiology, 2022)

Biological target: T1, Babesia orientalis lactate dehydrogenase (BoLDH) (Babesia orientalis, UniProt A0A8X6EH37)
T1 construct: full-length ORF (330 residues), N-terminal His6 tag, recombinant rBoLDH
T1 sequence (A0A8X6EH37 1-330): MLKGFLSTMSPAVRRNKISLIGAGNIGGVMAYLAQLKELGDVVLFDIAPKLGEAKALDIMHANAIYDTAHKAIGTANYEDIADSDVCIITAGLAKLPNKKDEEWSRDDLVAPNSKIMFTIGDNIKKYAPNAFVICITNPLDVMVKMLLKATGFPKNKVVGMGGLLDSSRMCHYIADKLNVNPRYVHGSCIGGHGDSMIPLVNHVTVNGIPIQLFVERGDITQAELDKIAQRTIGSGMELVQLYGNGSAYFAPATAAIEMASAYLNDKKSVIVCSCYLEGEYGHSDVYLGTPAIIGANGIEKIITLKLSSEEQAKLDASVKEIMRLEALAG
Assay: Michaelis-Menten inhibition kinetics, lactate to pyruvate, NADH absorbance at […] nm, […] gossypol
Type: biochemical

Cc1cc2c(C(C)C)c(O)c(O)c(C=O)c2c(O)c1-c1c(C)cc2c(C(C)C)c(O)c(O)c(C=O)c2c1O [gossypol]
Ki: 4.24 ± 0.25 µM
